In general, IC50 refers to the concentration at which inhibition is half-maximal.

Sequence of human NaV 1.8 (Q9Y5Y9 126-399 limits assumed): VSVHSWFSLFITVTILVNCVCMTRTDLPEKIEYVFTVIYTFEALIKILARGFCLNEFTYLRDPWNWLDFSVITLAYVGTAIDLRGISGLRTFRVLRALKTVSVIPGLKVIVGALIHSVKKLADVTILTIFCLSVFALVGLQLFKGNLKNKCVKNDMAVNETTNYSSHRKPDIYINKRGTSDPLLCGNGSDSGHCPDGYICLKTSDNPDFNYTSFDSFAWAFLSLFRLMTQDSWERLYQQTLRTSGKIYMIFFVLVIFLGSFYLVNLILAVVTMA
Sequence of human NaV 1.8 (Q9Y5Y9 660-890 limits assumed): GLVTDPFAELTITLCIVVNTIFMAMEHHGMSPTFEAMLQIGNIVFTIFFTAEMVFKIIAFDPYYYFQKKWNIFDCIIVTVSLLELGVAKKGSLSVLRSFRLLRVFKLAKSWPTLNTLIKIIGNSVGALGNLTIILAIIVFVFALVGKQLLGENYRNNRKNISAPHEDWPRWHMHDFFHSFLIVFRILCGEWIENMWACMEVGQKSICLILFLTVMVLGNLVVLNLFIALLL
Sequence of human NaV 1.8 (Q9Y5Y9 1148-1722 limits assumed): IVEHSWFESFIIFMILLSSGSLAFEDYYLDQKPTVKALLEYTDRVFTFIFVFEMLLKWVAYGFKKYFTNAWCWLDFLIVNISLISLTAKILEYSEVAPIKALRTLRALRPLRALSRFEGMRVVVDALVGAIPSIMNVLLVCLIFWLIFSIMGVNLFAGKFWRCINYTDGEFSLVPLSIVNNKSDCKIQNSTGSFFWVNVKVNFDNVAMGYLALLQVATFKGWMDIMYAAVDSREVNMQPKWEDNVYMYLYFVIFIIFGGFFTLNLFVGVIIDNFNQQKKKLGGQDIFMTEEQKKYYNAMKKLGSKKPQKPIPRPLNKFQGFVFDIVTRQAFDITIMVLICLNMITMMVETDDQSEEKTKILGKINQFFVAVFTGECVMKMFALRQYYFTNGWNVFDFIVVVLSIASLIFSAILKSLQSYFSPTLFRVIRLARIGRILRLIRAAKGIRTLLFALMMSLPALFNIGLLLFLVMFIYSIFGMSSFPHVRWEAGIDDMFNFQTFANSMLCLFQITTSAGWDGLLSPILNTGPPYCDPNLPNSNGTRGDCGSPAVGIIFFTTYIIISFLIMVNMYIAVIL

One assay has as its target human NaV 1.8 (Homo sapiens, UniProt Q9Y5Y9). The experiment in a line: E-VIPR assay detecting and measuring NaV inhibition properties. Format: cell-based. The conditions noted are these: HEK cells expressing truncated human NaV 1.8; in the presence of human serum (compound numbers followed by *); read-out: IC50 in the E-VIPR Assay, performed in the presence of human serum. An outline of the steps:
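Membrane potential was followed by coumarin/oxonol FRET during electrical field stimulation of matrigel-seeded HEK cells carrying truncated human NaV1.8 plus KIR2.1. Dosing used 11 points, 3-fold steps, top 300 nM final, 0.625% DMSO, with or without 25% human serum.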
Consider `COc1c([C@@H]2C[C@](C)(C(F)(F)F)O[C@H]2C(=O)Nc2ccnc([C@@H](O)[C@H](C)O)c2)ccc(F)c1F` (relative stereo) [Compound 700, rel-(2R,3S,5R)-3-(3,4-difluoro-2-methoxyphenyl)-N-(2-((1R,2S)-1,2-dihydroxypropyl)pyridin-4-yl)-5-methyl-5-(trifluoromethyl)tetrahydrofuran-2-carboxamide], for which the IC50 was 10 to 100 nM.
Still for that read-out and setting: in the case of `COc1c([C@H]2C[C@@](C)(C(F)(F)F)O[C@@H]2C(=O)Nc2cn(S(C)(=O)=O)nc2C)ccc(F)c1F` (stereo in doubt) [Compound 683, rel-(2S,3R,5S)-3-(3,4-difluoro-2-methoxyphenyl)-5-methyl-N-(3-methyl-1-(methylsulfonyl)-1H-pyrazol-4-yl)-5-(trifluoromethyl)tetrahydrofuran-2-carboxamide] it was at least 1000 nM; in that of `C[C@@H]1[C@H](c2ccc(F)c(F)c2OC(F)F)[C@@H](C(=O)Nc2ccc(C(N)=O)nc2)O[C@]1(C)C(F)(F)F` (single isomer, unassigned) [Compound 93], at least 1000 nM.

Still in this assay, the particulars now being: HEK cells expressing truncated human NaV 1.8; no human serum; read-out: IC50 in the E-VIPR Assay.
On to `C[C@H]1[C@@H](c2ccc(F)c(F)c2OCCO)[C@H](C(=O)Nc2cnn(C)c(=O)c2)O[C@@]1(C)C(F)(F)F` [Compound 568, (2R,3S,4S,5R)-3-(3,4-difluoro-2-(2-hydroxyethoxy)phenyl)-4,5-dimethyl-N-(1-methyl-6-oxo-1,6-dihydropyridazin-4-yl)-5-(trifluoromethyl)tetrahydrofuran-2-carboxamide], for which the IC50 was in the range of 10 to 100 nM.
Same read-out and setting: in the case of `[2H]C([2H])([2H])Oc1c([C@H]2[C@H](C(=O)Nc3ccnc(N4C(=O)CN(C)C[C@H]4C)c3)O[C@@](C)(C(F)(F)F)[C@H]2C)ccc(F)c1F` [Compound 519, (2R,3S,4S,5R)-3-[3,4-difluoro-2-(trideuteriomethoxy)phenyl]-N-[2-[(2R)-2,4-dimethyl-6-oxo-piperazin-1-yl]-4-pyridyl]-4,5-dimethyl-5-(trifluoromethyl)tetrahydrofuran-2-carboxamide] it was under 10 nM.
Same read-out and setting: in the case of `COc1c([C@H]2[C@H](C(=O)NCC(C)N3CCN(C)CC3)O[C@@](C)(C(F)(F)F)[C@H]2C)ccc(F)c1F` (stereo partly drawn) [Compound 293, (2R,3S,4S,5R)-3-(3,4-difluoro-2-methoxyphenyl)-4,5-dimethyl-N-(2-(4-methylpiperazin-1-yl)propyl)-5-(trifluoromethyl)tetrahydrofuran-2-carboxamide] it was at least 1000 nM.
The same measure, in the same setting: with `COc1c([C@H]2[C@H](C(=O)Nc3ccnc(N4CC[C@@H](O)C4=O)c3)O[C@@](C)(C(F)(F)F)[C@H]2C)ccc(F)c1F` [Compound 471, (2R,3S,4S,5R)-3-(3,4-difluoro-2-methoxyphenyl)-N-(2-((R)-3-hydroxy-2-oxopyrrolidin-1-yl)pyridin-4-yl)-4,5-dimethyl-5-(trifluoromethyl)tetrahydrofuran-2-carboxamide] the figure was 10 to 100 nM.
On to `COc1c([C@H]2[C@H](C(=O)Nc3cc(N4C(=O)CN(C)C[C@H]4C)ncn3)O[C@@](C)(C(F)(F)F)[C@H]2C)ccc(F)c1F` [Compound 513], for which the IC50 lay within 10 to 100 nM.
The same measure, in the same setting: with `COc1c([C@H]2[C@H](C(=O)Nc3ccnc(N4CC[C@H](O)C4=O)c3)O[C@@](C)(C(F)(F)F)[C@H]2C)ccc(F)c1F` [Compound 473, (2R,3S,4S,5R)-3-(3,4-difluoro-2-methoxyphenyl)-N-(2-((S)-3-hydroxy-2-oxopyrrolidin-1-yl)pyridin-4-yl)-4,5-dimethyl-5-(trifluoromethyl)tetrahydrofuran-2-carboxamide] the figure was 10 to 100 nM; with `C[C@@H]1[C@H](c2ccc(F)c(F)c2OC(F)F)[C@@H](C(=O)Nc2ccn3nnnc3c2)O[C@]1(C)C(F)(F)F` (single isomer, unassigned) [Compound 79], 100 to 1000 nM.
Consider `COc1c([C@H]2[C@H](C(=O)Nc3ccc(C(F)F)nc3)O[C@@](C)(C(F)(F)F)[C@H]2C)ccc(F)c1C(F)F` (single isomer, unassigned) [Compound 165], for which the IC50 fell in the range of 10 to 100 nM.
Consider `COc1c([C@H]2[C@H](C(=O)Nc3cc(CO)n(C)n3)O[C@@](C)(C(F)(F)F)[C@H]2C)ccc(F)c1F` [Compound 263, (2R,3S,4S,5R)-3-(3,4-difluoro-2-methoxyphenyl)-N-(5-(hydroxymethyl)-1-methyl-1H-pyrazol-3-yl)-4,5-dimethyl-5-(trifluoromethyl)tetrahydrofuran-2-carboxamide], for which the IC50 fell in the range of 100 to 1000 nM.
On to `COc1c([C@H]2[C@H](C(=O)Nc3ccnc(C4COCCN4C)c3)O[C@@](C)(C(F)(F)F)[C@H]2C)ccc(F)c1F` (single isomer, unassigned) [Compound 364, rel-(2R*,3S*,4S*,5R*)-3-(3,4-difluoro-2-methoxyphenyl)-4,5-dimethyl-N-(2-(4-methylmorpholin-3-yl)pyridin-4-yl)-5-(trifluoromethyl)tetrahydrofuran-2-carboxamide], for which the IC50 is under 10 nM.
Still for that read-out and setting: in the case of `COc1c([C@H]2[C@H](C(=O)Nc3cc(C(O)CN(C)C)ncc3F)O[C@@](C)(C(F)(F)F)[C@H]2C)ccc(F)c1F` (single isomer, unassigned) [Compound 370, rel-(2R*,3S*,4S*,5R*)-3-(3,4-difluoro-2-methoxyphenyl)-N-(2-(2-(dimethylamino)-1-hydroxyethyl)-5-fluoropyridin-4-yl)-4,5-dimethyl-5-(trifluoromethyl)tetrahydrofuran-2-carboxamide] it was under 10 nM; in that of `COc1c([C@H]2[C@H](C(=O)Nc3ccnc(N4C[C@@H]5CC[C@@H](N5)C4=O)c3)O[C@@](C)(C(F)(F)F)[C@H]2C)ccc(F)c1F` (single isomer, unassigned) [Compound 494, rel-(2R*,3S*,4S*,5R*)-3-(3,4-difluoro-2-methoxyphenyl)-4,5-dimethyl-N-(2-((1R,5S)-2-oxo-3,8-diazabicyclo[3.2.1]octan-3-yl)pyridin-4-yl)-5-(trifluoromethyl)tetrahydrofuran-2-carboxamide], 10 to 100 nM.
Still for that read-out and setting: in the case of `COc1c([C@H]2[C@H](C(=O)NC(C)C(=O)NC3CC3)O[C@@](C)(C(F)(F)F)[C@H]2C)ccc(F)c1F` (stereo partly drawn) [Compound 297, (2R,3S,4S,5R)-N-(1-(cyclopropylamino)-1-oxopropan-2-yl)-3-(3,4-difluoro-2-methoxyphenyl)-4,5-dimethyl-5-(trifluoromethyl)tetrahydrofuran-2-carboxamide] it was at least 1000 nM.
As to `COc1c([C@H]2[C@H](C(=O)Nc3ncco3)O[C@@](C)(C(F)(F)F)[C@H]2C)ccc(F)c1F` [Compound 196, (2R,3S,4S,5R)-3-(3,4-difluoro-2-methoxyphenyl)-4,5-dimethyl-N-(oxazol-2-yl)-5-(trifluoromethyl)tetrahydrofuran-2-carboxamide], the IC50 was under 10 nM.
Take `COc1c([C@H]2[C@H](C(=O)Nc3cnc4c(c3)CCC4O)O[C@@](C)(C(F)(F)F)[C@H]2C)ccc(F)c1F` (single isomer, unassigned) [Compound 433, rel-(2R*,3S*,4S*,5R*)-3-(3,4-difluoro-2-methoxyphenyl)-N-(7-hydroxy-6,7-dihydro-5H-cyclopenta[b]pyridin-3-yl)-4,5-dimethyl-5-(trifluoromethyl)tetrahydrofuran-2-carboxamide]: the IC50 lay in the range of 100 to 1000 nM.
Still for that read-out and setting: with `CNS(=O)(=O)c1cc(NC(=O)C2OC(C)(C(F)(F)F)C(C)C2c2ccc(F)c(F)c2OC)ccn1` (single isomer, unassigned) [Compound 455, 3-(3,4-difluoro-2-methoxy-phenyl)-4,5-dimethyl-N-[2-(methylsulfamoyl)-4-pyridyl]-5-(trifluoromethyl)tetrahydrofuran-2-carboxamide] the figure was 100 to 1000 nM; with `C[C@@H]1[C@H](c2ccc(F)c(F)c2OC(F)F)[C@@H](C(=O)Nc2ccnc(CO)c2)O[C@]1(C)C(F)(F)F` (single isomer, unassigned) [Compound 91], at least 1000 nM.
Take `CCOc1c([C@@H]2[C@@H](C(=O)Nc3ccn(C)c(=O)c3)O[C@](C)(C(F)(F)F)[C@@H]2C)ccc(F)c1F` (stereo in doubt) [Compound 102, rel-(2S,3R,4R,5S)-3-(2-ethoxy-3,4-difluorophenyl)-4,5-dimethyl-N-(1-methyl-2-oxo-1,2-dihydropyridin-4-yl)-5-(trifluoromethyl)tetrahydrofuran-2-carboxamide]: the concentration for half-maximal inhibition (IC50) was at least 1000 nM.
Still for that read-out and setting: in the case of `C[C@H]1[C@@H](c2ccc(F)c(F)c2OCCO)[C@H](C(=O)Nc2ccc(C(F)F)nc2)O[C@@]1(C)C(F)(F)F` [Compound 571, (2R,3S,4S,5R)-3-(3,4-difluoro-2-(2-hydroxyethoxy)phenyl)-N-(6-(difluoromethyl)pyridin-3-yl)-4,5-dimethyl-5-(trifluoromethyl)tetrahydrofuran-2-carboxamide] it was 10 to 100 nM.
Same read-out and setting: in the case of `COc1c([C@H]2[C@H](C(=O)Nc3cnc4c(c3)CCC4O)O[C@@](C)(C(F)(F)F)[C@H]2C)ccc(F)c1F` (single isomer, unassigned) [Compound 17] it was 10 to 100 nM.
On the same count and under the same terms, in the case of `COc1c([C@H]2[C@H](C(=O)Nc3ccnc(C(C)(O)CF)c3)O[C@@](C)(C(F)(F)F)[C@H]2C)ccc(F)c1F` (single isomer, unassigned) [Compound 226, rel-(2R*,3S*,4S*,5R*)-3-(3,4-difluoro-2-methoxyphenyl)-N-(2-(1-fluoro-2-hydroxypropan-2-yl)pyridin-4-yl)-4,5-dimethyl-5-(trifluoromethyl)tetrahydrofuran-2-carboxamide] it was under 10 nM.
For the molecule `C[C@H]1[C@@H](c2ccc(F)c(F)c2OC(F)F)[C@H](C(=O)Nc2ccnc(CO)c2)O[C@@]1(C)C(F)(F)F` (single isomer, unassigned) [Compound 92], the IC50 was under 10 nM.

Source of the values: US20240368135A1 (VERTEX PHARMACEUTICALS INCORPORATED, priority 2021, published 2024).
